Laboratory results: patent US7105730B1, “Nucleic acid molecules and other molecules associated with sterol synthesis and metabolism” (Monsanto Technology L.L.C., priority 1999, dated 2006)

Tested on: HES1 (YOR237W) transcript in wild type yeast LPY9
Experiment: Yeast transcript profiling by array hybridization after ketoconazole treatment
Assay type: cell-based, Saccharomyces cerevisiae
Details: yeast LPY9, array of yeast ORF sequences; SEQ ID NO: 5
Description: The yeast strain LPY9 (MATa, leu2, Ura3, his3) is grown overnight and inoculated into SD+ hul (histidine, uracil, leucine) media. Aliquots of the culture are treated with ketoconazole (an inhibitor of C-14α demethylase (P45014DM) enzyme) at 10 ug/ml, 50 ug/ml, and […], respectively. A sample of each is collected at 2, 4, and 6 hours after treatment. Control samples treated with DMSO (dimethyl sulfoxide-solvent for ketoconazole) but not with ketoconazole are also collected. Total RNA from each sample is collected by conventional methods, such as a Zirconium/Silica bead binding and extraction method. The sequence content of each sample is analyzed and compared by hybridizing each of them to a number of yeast ORF sequences immobilized on a Nylon membrane in an array format.
Using this method, over 600 RNA transcripts levels are shown to be altered.

## CC(=O)N1CCN(c2ccc(OCC3COC(Cn4ccnc4)(c4ccc(Cl)cc4Cl)O3)cc2)CC1 (stereo not shown) [ketoconazole]
  Effect of ketoconazole addition on yeast HES1 transcript level: particularly effected
